# Experiments:
# guinea pig liver tTGase = target: T1, guinea pig liver tTGase (Cavia cutleri, UniProt P08587); test: In vitro cross-linking reaction of α-synuclein by tTGase (SDS/PAGE, Western blot); assay type: biochemical; settings: 37° C., 2 hours
# T1 construct: purified guinea pig liver tTGase (10 nM); purchased Sigma (St. Louis, Mo.); host or cells: guinea pig liver
# T1 sequence (P08587 1-690): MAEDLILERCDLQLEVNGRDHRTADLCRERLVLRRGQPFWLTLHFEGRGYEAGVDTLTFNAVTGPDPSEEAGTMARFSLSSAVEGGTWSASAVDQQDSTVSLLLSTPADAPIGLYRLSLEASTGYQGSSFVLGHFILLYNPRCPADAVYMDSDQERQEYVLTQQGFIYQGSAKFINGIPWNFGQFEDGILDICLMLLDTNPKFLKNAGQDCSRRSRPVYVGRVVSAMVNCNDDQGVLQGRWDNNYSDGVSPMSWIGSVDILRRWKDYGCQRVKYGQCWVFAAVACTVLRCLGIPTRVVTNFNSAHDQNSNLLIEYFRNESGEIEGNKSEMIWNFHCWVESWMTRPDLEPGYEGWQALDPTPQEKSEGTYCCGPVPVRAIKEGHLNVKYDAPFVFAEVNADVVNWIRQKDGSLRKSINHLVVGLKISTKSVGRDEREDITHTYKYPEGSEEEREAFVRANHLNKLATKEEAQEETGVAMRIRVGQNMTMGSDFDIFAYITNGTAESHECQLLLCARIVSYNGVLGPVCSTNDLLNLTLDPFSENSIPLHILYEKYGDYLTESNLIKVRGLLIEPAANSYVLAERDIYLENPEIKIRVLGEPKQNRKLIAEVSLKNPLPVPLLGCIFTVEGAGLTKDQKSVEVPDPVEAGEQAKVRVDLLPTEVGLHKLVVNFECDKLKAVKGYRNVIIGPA
# Procedure: Suitable tTGase inhibitor compounds for use in the treatment methods and compositions of the invention can be assessed by straightforward protocols, such as the following. […] The reaction products are then analyzed by standard SDS/PAGE and Western blot using an anti-α-synuclein antibody (e.g., rabbit polyclonal antibodies, available from Sigma or Chemicon (Temecula, Calif.); or monoclonal antibodies such as SYN-1 or LB509, available from Signal Transduction Laboratories (Lexington, Ky.) and Zymed (South San Francisco, Calif.), respectively). […]
# The reaction was performed at 37° C. for 2 hours in a buffer containing 50 mM Tris-HCl (pH 7.5), 2 mM leupeptin, and 1 mM purified α-synuclein. […] The reaction was stopped by the addition of 20 mM EDTA, and products were analyzed by SDS/PAGE followed by Western blot.
# To study the in vitro cross-linking of α-synuclein, purified recombinant human α-synuclein protein was incubated with guinea pig liver tTGase for 2 hours at 37° C., and the reaction products were analyzed by SDS/PAGE, followed by Western blotting with anti-α-synuclein antibody. […]
# tTGase [1] = target: T2, tTGase (Homo sapiens, UniProt P21980); test: tTGase-induced α-synuclein aggregates by immunocytochemistry in transfected HEK293T cells; assay type: cell-based; settings: 48 hours
# T2 construct: expressed in transfected cells; host or cells: COS-7 (A2); HEK293T (A3); pSG5 expression vector
# T2 sequence (P21980 1-687): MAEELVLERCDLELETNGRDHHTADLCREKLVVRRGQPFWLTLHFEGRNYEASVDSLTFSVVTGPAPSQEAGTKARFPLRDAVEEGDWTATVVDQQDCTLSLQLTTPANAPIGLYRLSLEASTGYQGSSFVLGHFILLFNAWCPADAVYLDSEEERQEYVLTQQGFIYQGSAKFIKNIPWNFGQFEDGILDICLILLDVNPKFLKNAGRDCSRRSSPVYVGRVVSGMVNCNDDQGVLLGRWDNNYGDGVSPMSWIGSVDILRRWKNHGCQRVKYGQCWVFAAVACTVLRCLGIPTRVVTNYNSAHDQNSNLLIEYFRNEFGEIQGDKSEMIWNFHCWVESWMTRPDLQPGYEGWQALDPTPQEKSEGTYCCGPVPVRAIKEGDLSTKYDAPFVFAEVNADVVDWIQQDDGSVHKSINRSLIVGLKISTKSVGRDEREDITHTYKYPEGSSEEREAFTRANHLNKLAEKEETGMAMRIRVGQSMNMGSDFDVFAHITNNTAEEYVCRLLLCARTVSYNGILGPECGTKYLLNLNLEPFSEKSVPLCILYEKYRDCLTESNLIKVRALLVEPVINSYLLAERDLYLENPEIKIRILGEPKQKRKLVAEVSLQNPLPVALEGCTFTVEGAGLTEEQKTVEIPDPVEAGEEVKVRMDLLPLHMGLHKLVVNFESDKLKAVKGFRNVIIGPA
# Procedure: FIG. 1 depicts α-Synuclein the detection of aggregates by immunocytochemistry. HEK293T cells transiently transfected with α-synuclein in the absence or presence of tTGase were treated with CTM (100 μM, 200 μM) or A23187 (0.1 μg/ml) for 48 hours and stained for α-synuclein and tTGase. Aggregate-containing cells among transfected cells were counted in 10 randomly selected fields. Each microscopic field had 10-20 transfected cells. The data represent means±SEM. Significance levels determined by factorial ANOVA and the Bonferroni post hoc test are shown. *, P<0.002; * *, P<0.06; * * *, P<0.02.
# (§1) COS-7 and human embryonic kidney (HEK) 293T cell lines were maintained in DMEM containing 10% FBS. Transfections were performed by using FuGene 6 reagent (Roche Molecular Biochemicals, Indianapolis, Ind.) for a 6 hour incubation period, and then treatments were initiated.
# HEK 293T cells transiently transfected as described in the Examples below were cultured in the presence or absence of indicated chemicals in collagen-coated Biocoat slides (Becton Dickinson, Bedford, Mass.) for 48 hours. […] Cells were washed five times with PBS and analyzed under a fluorescence microscope (Axiophot, Zeiss, Thornwood, N.Y.). For quantification of inclusions, 10 microscopic fields were randomly selected, and the percentage of inclusion-positive cells was counted among transfected cells. […]
# tTGase [2] = target: T2, tTGase; test: tTGase-induced α-synuclein aggregation in transfected COS-7 cells (detergent-insoluble fraction, Western blot); assay type: cell-based
# Procedure: Suitable tTGase inhibitor compounds for use in the treatment methods and compositions of the invention can be also be assessed by a protocol referred to herein as ‘a standard in vivo tTGase inhibition assay’, set forth as follows: Cells (e.g., neurons, COS-7 cells, or HEK […] cells) are co-transfected with an α-synuclein and tTGase expression plasmids (1 μg each) using FuGene 6 reagent (Roche Molecular Biochemicals, Indianapolis, Ind.) for 6 hours and cultured in DMEM containing 10% FBS for 48 hours. Cells are then lysed in a buffer containing PBS with 1% Triton X-100 and a mixture of protease inhibitors (Roche Molecular Biochemicals). Cells are homogenized with 20 strokes in a Dounce homogenizer, centrifuged at 20,000×g at 4° C. for 30 minutes. The detergent-insoluble fraction is used in Western blot analysis using an anti-α-synuclein antibody as described above for the standard in vitro assay. The cells in the assay can be cultured in the presence or absence of a candidate compound to determine whether the candidate compound can inhibit the production of the high-molecular weight aggregates. This defined standard in vivo tTGase inhibition assay is exemplified in Examples 1 and 2 (including the materials and methods section) which follows.
# α-Synuclein cDNA was cloned by PCR from human fetal brain cDNA library (Stratagene, La Jolla, Calif.) (Bennett, M. C. et al. (1999) J. Biol. Chem. 274:33855-33858) and subcloned into pcDNA3.1 (Invitrogen, Carlsbad, Calif.), and pTYB11 (New England Biolabs, Beverly, Mass.). tTGase cDNA was amplified by PCR from human liver cDNA library by using primers 5′-aagaattc[…]-3′ (SEQ ID NO:1) and 5′-aagaattc[…]-3′ (SEQ ID NO:2). Lowercase letters indicate additional nucleotides designed to facilitate cloning. The PCR product was inserted into pSG5 expression vector (Stratagene), and its sequence matched perfectly with the known cDNA sequence of human tTGase (Gentile, V. et al. (1991) J. Biol. Chem. 266:478-483). […] Mouse monoclonal tTGase antibody (CUB 7402) was purchased from DAKO (Carpinteria, Calif.). The rabbit polyclonal tTGase antibody was described in Kim. S. Y. et al. (1999) J. Biol. Chem. 274:30715-30721. Guinea pig liver tTGase, cystamine (CTM), and A23187 were purchased from Sigma (St. Louis, Mo.). Rabbit polyclonal α-synuclein antibodies were obtained from Sigma and Chemicon (Temecula, Calif.). Monoclonal anti-α-synuclein antibodies, SYN-1 and LB509, were from Transduction Laboratories (Lexington, Ky.) and Zymed (South San Francisco, Calif.), respectively. Monoclonal antibody recognizing ε(γ-glutamyl) lysine isodipeptide bonds (81D1C2) was purchased from Covalab (Lyon, France). Recombinant human α-synuclein protein was expressed in pTYB11 and purified by the IMPACT T7 system (New England Biolabs) according to the supplier's instructions.
# as §1
# Cells were lysed in a buffer containing PBS with 1% Triton X-100 and a mixture of protease inhibitors (Roche Molecular Biochemicals). […] Immunoprecipitates were analyzed by Western blots with antiisodipeptide antibody (81D1C2) or anti-α-synuclein antibody SYN-1 with the ECL detection system (NEN, Boston, Mass.). […]
# [3] = delayed treatment, 200 μM during the final 48 hours of 96 hours, COS-7
compound,measurement,setting,value
O=C(O)CN(CCN(CC(=O)O)CC(=O)O)CC(=O)O [EDTA],aggregate formation (α-synuclein),"guinea pig liver tTGase; chelation with EDTA (0.1 mM, 5 mM)",dose-dependently blocked
CNc1ccc2oc(C[C@H]3O[C@@]4(CC[C@H]3C)O[C@H]([C@H](C)C(=O)c3ccc[nH]3)[C@H](C)C[C@H]4C)nc2c1C(=O)O [A23187],aggregate formation (aggregate-containing cells among transfected cells),"tTGase [1]; HEK293T cells, 0.1 μg/ml",significantly increased
same,high molecular weight bands of α-synuclein,"tTGase [2]; COS-7 cells transfected with only α-synuclein, 0.1 μg/ml",some high molecular weight bands
same,formation of α-synuclein aggregates,"tTGase [2]; α-synuclein- and tTGase-transfected COS-7 cells, 0.1 μg/ml",significant increase
"NCCSSCCN [CTM, cystamine]",inclusion formation (aggregate-containing cells among transfected cells),"tTGase [1]; HEK293T cells coexpressing α-synuclein and tTGase, 100 μM, 200 μM",decreased inclusion formation
same,further de novo aggregation occurring during the final 48 hours,tTGase [2]; [3],inhibited further de novo aggregation
same,level of aggregates formed during the initial 48 hours (preformed aggregates),tTGase [2]; [3],did not diminish
same,formation of tTGase-induced α-synuclein aggregates,"tTGase [2]; α-synuclein- and tTGase-transfected COS-7 cells, 200 μM for 48 hours",dramatically inhibited
[Ca+2].[Cl-].[Cl-] [CaCl2],generation of high molecular weight aggregates of α-synuclein,"guinea pig liver tTGase; addition of CaCl2 (5 mM), tTGase 10 nM, DTT 0.1 mM",significantly enhanced
